# Data: patent US11229618B2 (Amarin Pharmaceuticals Ireland Limited, priority 2012, dated 2022)
# Experiment: ANCHOR: RBC fatty acid concentrations, ratios and class proportions (GC/FID)
# Assay type: in vivo, human
# Set-up: DHA RBC End-of-treatment / DHA RBC Change from baseline / DPAn-3 RBC End-of-treatment / DPAn-3 RBC Change from baseline / AA RBC End-of-treatment / AA RBC Change from baseline / Stearic RBC End-of-treatment / Stearic RBC Change from baseline / Oleic RBC End-of-treatment / Oleic RBC Change from baseline / Linoleic RBC End-of-treatment / Linoleic RBC Change from baseline: unit not given here
# Settings: for AA RBC Placebo-adjusted percent change from baseline / DHA RBC Placebo-adjusted percent change from baseline / DPAn-3 RBC Placebo-adjusted percent change from baseline / Linoleic RBC Placebo-adjusted percent change from baseline / Oleic RBC Placebo-adjusted percent change from baseline / Palmitic RBC Placebo-adjusted percent change from baseline / Ratio of AA/EPA RBC Placebo-adjusted percent change from baseline / Ratio of total ω-3/total ω-6 RBC Placebo-adjusted percent change from baseline / Stearic RBC Placebo-adjusted percent change from baseline: week 12, LS mean; for Monounsaturated, proportion of total fatty acids, RBCs, Change from baseline / Saturated, proportion of total fatty acids, RBCs, Change from baseline / Total ω-3, proportion of total fatty acids, RBCs, Change from baseline / Total ω-6, proportion of total fatty acids, RBCs, Change from baseline: LS mean (SE); for AA RBC End-of-treatment / DHA RBC End-of-treatment / DPAn-3 RBC End-of-treatment / Linoleic RBC End-of-treatment / Oleic RBC End-of-treatment / Palmitic RBC End-of-treatment / Ratio of AA/EPA RBC End-of-treatment / Ratio of total ω-3/total ω-6 RBC End-of-treatment / Stearic RBC End-of-treatment: week 12, mean; for Monounsaturated, proportion of total fatty acids, RBCs, End-of-treatment / Saturated, proportion of total fatty acids, RBCs, End-of-treatment / Total ω-3, proportion of total fatty acids, RBCs, End-of-treatment / Total ω-6, proportion of total fatty acids, RBCs, End-of-treatment: week 12, mean (SD)
# Procedure: A multi-center, placebo-controlled, randomized, double-blind, 12-week study was performed to evaluate the efficacy and safety of >96% E-EPA in patients with fasting triglyceride levels≥200 mg/dl and <500 mg/dl despite statin therapy (the mean of two qualifying entry values needed to be ≥185 mg/dl and at least one of the values needed to be ≥200 mg/dl). The primary objective of the study was to determine the efficacy of >96% E-EPA 2 g daily and 4 g daily, compared to placebo, in lowering fasting TG levels in patients with high risk for cardiovascular disease and with fasting TG levels≥200 mg/dL and <500 mg/dL, despite treatment to LDL-C goal on statin therapy.
# During the double-blind treatment period, patients were to take 2 capsules (>96% E-EPA or matching placebo) in the morning and 2 capsules in the evening for a total of 4 capsules per day. • Patients in the >96% E-EPA 2 g/day treatment group received 1>96% E-EPA 1 g capsule and 1 matching placebo capsule in the morning and in the evening. • Patients in the >96% E-EPA 4 g/day treatment group received 2>96% E-EPA 1 g capsules in the morning and evening. • Patients in the placebo group received 2 matching placebo capsules in the morning and evening.
# Lipids were extracted from plasma and red blood cell (“RBC”) suspensions and converted into fatty acid methyl esters for analysis using a standard validated gas chromatography/flame ionization detection method. Fatty acid parameters were compared between EPA treatment groups and placebo using an ANCOVA model with treatment, gender, type of statin therapy, and presence of diabetes as factors, and the baseline parameter value as a covariate. LSMs, SEs, and 2-tailed 95% confidence intervals for each treatment group and for each comparison were determined.
# The monounsaturated fatty acid group included myristoleic, palmitoleic, cis-vaccenic, oleic, gondoic/gadoleic, erucic and nervonic acids. The saturated fatty acid group included myristic, palmitic, stearic, arachidic, behenic and lignoceric acids. The “total ω-3” group included α-linolenic, stearidonic, eicosatrienoic, ω-3 arachidonic, eicosapentaenoic, ω-3 docosapentaenoic and docosahecaenoic acids. The “total ω-6” group included linoleic, γ-linolenic, eicosadienoic, dihomo-γ-linolenic, ω-6 arachidonic, adrenic, and ω-6 docosapentaenoic acids. The “total fatty acid” group represented the sum of the monounsaturated, saturated, total ω-3 and total ω-6 groups.
# [1] = 2 g/day, baseline to week 12, LS mean (SE)
# [2] = 4 g/day, baseline to week 12, LS mean
compound,measurement,setting,value
"CC/C=C\C/C=C\C/C=C\C/C=C\C/C=C\CCCC(=O)OCC [IPE, all-cis eicosa-5,8,11,14,17-pentaenoic acid ethyl ester]","Monounsaturated, proportion of total fatty acids, RBCs, Placebo-adjusted percent change from baseline",2 g/day vs placebo,−0.7%
same,"Saturated, proportion of total fatty acids, RBCs, Placebo-adjusted percent change from baseline",2 g/day vs placebo,1.3%
same,"Total ω-3, proportion of total fatty acids, RBCs, Placebo-adjusted percent change from baseline",2 g/day vs placebo,50.0%
same,"Total ω-6, proportion of total fatty acids, RBCs, Placebo-adjusted percent change from baseline",2 g/day vs placebo,−11.3%
same,AA RBC Placebo-adjusted percent change from baseline,2 g/day vs placebo,−11.6%
same,DHA RBC Placebo-adjusted percent change from baseline,2 g/day vs placebo,−5.4%
same,DPAn-3 RBC Placebo-adjusted percent change from baseline,2 g/day vs placebo,74.9%
same,Linoleic RBC Placebo-adjusted percent change from baseline,2 g/day vs placebo,−2.1%
same,Oleic RBC Placebo-adjusted percent change from baseline,2 g/day vs placebo,1.6%
same,Palmitic RBC Placebo-adjusted percent change from baseline,2 g/day vs placebo,0.5%
same,Ratio of AA/EPA RBC Placebo-adjusted percent change from baseline,2 g/day vs placebo,−87.1%
same,Ratio of total ω-3/total ω-6 RBC Placebo-adjusted percent change from baseline,2 g/day vs placebo,60.4%
same,Stearic RBC Placebo-adjusted percent change from baseline,2 g/day vs placebo,1.6%
same,"Monounsaturated, proportion of total fatty acids, RBCs, Change from baseline",2 g/day,−0.1 (0.2) mol %
same,"Saturated, proportion of total fatty acids, RBCs, Change from baseline",2 g/day,−0.3 (0.3) mol %
same,"Total ω-3, proportion of total fatty acids, RBCs, Change from baseline",2 g/day,2.6 (0.2) mol %
same,"Total ω-6, proportion of total fatty acids, RBCs, Change from baseline",2 g/day,−2.4 (0.4) mol %
same,AA RBC Change from baseline,[1],−20.0 (3.3)
same,DHA RBC Change from baseline,[1],−5.5 (0.9)
same,DPAn-3 RBC Change from baseline,[1],21.2 (1.3)
same,Linoleic RBC Change from baseline,[1],−1.3 (3.5)
same,Oleic RBC Change from baseline,[1],3.1 (2.8)
same,Palmitic RBC Change from baseline,[1],4.9 (4.1)
same,Ratio of AA/EPA RBC Change from baseline,[1],−21.9 (0.8)
same,Ratio of total ω-3/total ω-6 RBC Change from baseline,[1],0.1 (0.01)
same,Stearic RBC Change from baseline,[1],3.9 (2.3)
same,AA RBC End-of-treatment,2 g/day,173.0
same,DHA RBC End-of-treatment,2 g/day,44.7
same,DPAn-3 RBC End-of-treatment,2 g/day,52.2
same,Linoleic RBC End-of-treatment,2 g/day,153.1
same,Oleic RBC End-of-treatment,2 g/day,204.7
same,Palmitic RBC End-of-treatment,2 g/day,321.1
same,Ratio of AA/EPA RBC End-of-treatment,2 g/day,6.4
same,Ratio of total ω-3/total ω-6 RBC End-of-treatment,2 g/day,0.3
same,Stearic RBC End-of-treatment,2 g/day,178.7
same,"Monounsaturated, proportion of total fatty acids, RBCs, End-of-treatment",2 g/day,19.9 (1.1) mol %
same,"Saturated, proportion of total fatty acids, RBCs, End-of-treatment",2 g/day,43.5 (2.1) mol %
same,"Total ω-3, proportion of total fatty acids, RBCs, End-of-treatment",2 g/day,8.5 (1.5) mol %
same,"Total ω-6, proportion of total fatty acids, RBCs, End-of-treatment",2 g/day,28.1 (2.1) mol %
same,"Monounsaturated, proportion of total fatty acids, RBCs, Placebo-adjusted percent change from baseline",4 g/day vs placebo,−2.7%
same,"Saturated, proportion of total fatty acids, RBCs, Placebo-adjusted percent change from baseline",4 g/day vs placebo,3.2%
same,"Total ω-3, proportion of total fatty acids, RBCs, Placebo-adjusted percent change from baseline",4 g/day vs placebo,89.1%
same,"Total ω-6, proportion of total fatty acids, RBCs, Placebo-adjusted percent change from baseline",4 g/day vs placebo,−19.7%
same,AA RBC Placebo-adjusted percent change from baseline,4 g/day vs placebo,−20.3%
same,DHA RBC Placebo-adjusted percent change from baseline,4 g/day vs placebo,−6.6%
same,DPAn-3 RBC Placebo-adjusted percent change from baseline,4 g/day vs placebo,122.4%
same,Linoleic RBC Placebo-adjusted percent change from baseline,4 g/day vs placebo,−11.1%
same,Oleic RBC Placebo-adjusted percent change from baseline,4 g/day vs placebo,−3.7%
same,Palmitic RBC Placebo-adjusted percent change from baseline,4 g/day vs placebo,−2.7%
same,Ratio of AA/EPA RBC Placebo-adjusted percent change from baseline,4 g/day vs placebo,−98.5%
same,Ratio of total ω-3/total ω-6 RBC Placebo-adjusted percent change from baseline,4 g/day vs placebo,123.0%
same,Stearic RBC Placebo-adjusted percent change from baseline,4 g/day vs placebo,−1.3%
same,"Monounsaturated, proportion of total fatty acids, RBCs, Change from baseline",4 g/day,−0.5 (0.2) mol %
same,"Saturated, proportion of total fatty acids, RBCs, Change from baseline",4 g/day,0.5 (0.3) mol %
same,"Total ω-3, proportion of total fatty acids, RBCs, Change from baseline",4 g/day,4.9 (0.2) mol %
same,"Total ω-6, proportion of total fatty acids, RBCs, Change from baseline",4 g/day,−4.9 (0.4) mol %
same,AA RBC Change from baseline,[2],−37.5
same,DHA RBC Change from baseline,[2],−6.4
same,DPAn-3 RBC Change from baseline,[2],33.6
same,Linoleic RBC Change from baseline,[2],−16.1
same,Oleic RBC Change from baseline,[2],−8.0
same,Palmitic RBC Change from baseline,[2],−6.3
same,Ratio of total ω-3/total ω-6 RBC Change from baseline,[2],0.2
same,Stearic RBC Change from baseline,[2],−1.4
same,AA RBC End-of-treatment,4 g/day,153.1
same,DHA RBC End-of-treatment,4 g/day,39.0
same,DPAn-3 RBC End-of-treatment,4 g/day,61.9
same,Linoleic RBC End-of-treatment,4 g/day,132.7
same,Oleic RBC End-of-treatment,4 g/day,188.8
same,Palmitic RBC End-of-treatment,4 g/day,301.2
same,Ratio of AA/EPA RBC End-of-treatment,4 g/day,3.6
same,Ratio of total ω-3/total ω-6 RBC End-of-treatment,4 g/day,0.4
same,Stearic RBC End-of-treatment,4 g/day,170.5
same,"Monounsaturated, proportion of total fatty acids, RBCs, End-of-treatment",4 g/day,19.8 (1.7) mol %
same,"Saturated, proportion of total fatty acids, RBCs, End-of-treatment",4 g/day,44.2 (3.0) mol %
same,"Total ω-3, proportion of total fatty acids, RBCs, End-of-treatment",4 g/day,10.2 (2.5) mol %
same,"Total ω-6, proportion of total fatty acids, RBCs, End-of-treatment",4 g/day,25.8 (3.2) mol %
